{"source": "paper PMC10686834", "about": "“Targeting myeloid chemotaxis to reverse prostate cancer therapy resistance” (Nature, 2023)", "test_system": "patients with ARSI-resistant mCRPC", "test": "Phase 1 trial of AZD5069 plus enzalutamide: safety and tolerability (DLTs, treatment-emergent adverse events, NCI-CTCAE v.4.0)", "type": "in vivo", "description": "The primary trial objective was to evaluate the safety and tolerability of the combination. Key secondary objectives were to evaluate pharmacokinetic–pharmacodynamic parameters and antitumour activity.\nEligible patients were consenting patients aged ≥18 years, who had mCRPC with histologically confirmed prostate adenocarcinoma histology, documented cancer progression at the time of trial entry by Response Evaluation Criteria in Solid Tumors (v.1.1) and/or Prostate Cancer Working Group 2 criteria, and PSA of ≥10 ng ml^−1 at screening.\nThe dose-escalation phase used a rule-based 3 + 3 design, with an initial three patients enrolled per dose level. If none of the first three patients experienced a DLT, dose escalation proceeded to the next dose level. […] If fewer than two of six patients at any dose level experienced a DLT, dose escalation continued to the next level. If at least two out of up to six patients experienced a DLT, dose escalation stopped and this dose level was defined as the maximum administered dose. Once this maximum administered dose was defined, the maximum tolerated dose (MTD) was confirmed at the dose level below the maximum administered dose. At least six evaluable patients were required to establish the MTD at a specific dose level. […] Intra-patient dose escalation was not permitted. Start of dosing between the first and second patient enrolled to each dose level was staggered by 1 week. Once the MTD was determined in the phase 1 study, the recommended phase 2 dose was determined on the basis of available data, including but not limited to safety and response.\nDLTs were defined as described in the study protocol. […] Prophylaxis with growth factor support or antipyretics were not permitted. Investigators determined whether an adverse event was related to the study drugs. If a patient experienced clinically significant and/or unacceptable toxicity, including a DLT, not attributable to the disease or disease-related processes, dosing was interrupted or the dose was reduced and supportive therapy was administered as required.", "data": [{"compound": "C[C@@H](Oc1cc(NS(=O)(=O)N2CCC2)nc(SCc2cccc(F)c2F)n1)[C@@H](O)CO", "note": "[AZD5069]", "values": [{"measurement": "TEAE Oedema genital, All G", "setting": "AZD5069 320 mg BD (n=7)", "result": "0 (0) n (%)"}, {"measurement": "TEAE Oedema genital, G≥3", "setting": "AZD5069 320 mg BD (n=7)", "result": "0 (0) n (%)"}, {"measurement": "TEAE Platelet decreased, All G", "setting": "AZD5069 320 mg BD (n=7)", "result": "0 (0) n (%)"}, {"measurement": "TEAE Platelet decreased, G≥3", "setting": "AZD5069 320 mg BD (n=7)", "result": "0 (0) n (%)"}, {"measurement": "TEAE Pruritus, All G", "setting": "AZD5069 320 mg BD (n=7)", "result": "0 (0) n (%)"}, {"measurement": "TEAE Pruritus, G≥3", "setting": "AZD5069 320 mg BD (n=7)", "result": "0 (0) n (%)"}, {"measurement": "TEAE Skin infection, All G", "setting": "AZD5069 320 mg BD (n=7)", "result": "0 (0) n (%)"}, {"measurement": "TEAE Skin infection, G≥3", "setting": "AZD5069 320 mg BD (n=7)", "result": "0 (0) n (%)"}, {"measurement": "TEAE Vomiting, All G", "setting": "AZD5069 320 mg BD (n=7)", "result": "0 (0) n (%)"}, {"measurement": "TEAE Vomiting, G≥3", "setting": "AZD5069 320 mg BD (n=7)", "result": "0 (0) n (%)"}, {"measurement": "TEAE White blood cell decreased, All G", "setting": "AZD5069 320 mg BD (n=7)", "result": "1 (14) n (%)"}, {"measurement": "TEAE White blood cell decreased, G≥3", "setting": "AZD5069 320 mg BD (n=7)", "result": "0 (0) n (%)"}, {"measurement": "TEAE Anemia, All G", "setting": "All patients (n=23)", "result": "4 (17) n (%)"}, {"measurement": "TEAE Anemia, G≥3", "setting": "All patients (n=23)", "result": "1 (4) n (%)"}, {"measurement": "TEAE Aphasia, All G", "setting": "All patients (n=23)", "result": "1 (4) n (%)"}, {"measurement": "TEAE Aphasia, G≥3", "setting": "All patients (n=23)", "result": "0 (0) n (%)"}, {"measurement": "TEAE Arthralgia, All G", "setting": "All patients (n=23)", "result": "1 (4) n (%)"}, {"measurement": "TEAE Arthralgia, G≥3", "setting": "All patients (n=23)", "result": "0 (0) n (%)"}, {"measurement": "TEAE Aspartate aminotransferase increased, All G", "setting": "All patients (n=23)", "result": "1 (4) n (%)"}, {"measurement": "TEAE Aspartate aminotransferase increased, G≥3", "setting": "All patients (n=23)", "result": "0 (0) n (%)"}, {"measurement": "TEAE Constipation, All G", "setting": "All patients (n=23)", "result": "2 (9) n (%)"}, {"measurement": "TEAE Constipation, G≥3", "setting": "All patients (n=23)", "result": "0 (0) n (%)"}, {"measurement": "TEAE Death, All G", "setting": "All patients (n=23)", "result": "1 (4) n (%)"}, {"measurement": "TEAE Death, G≥3", "setting": "All patients (n=23)", "result": "1 (4) n (%)"}, {"measurement": "TEAE Decreased appetite, All G", "setting": "All patients (n=23)", "result": "1 (4) n (%)"}, {"measurement": "TEAE Decreased appetite, G≥3", "setting": "All patients (n=23)", "result": "0 (0) n (%)"}, {"measurement": "TEAE Diarrhoea, All G", "setting": "All patients (n=23)", "result": "1 (4) n (%)"}, {"measurement": "TEAE Diarrhoea, G≥3", "setting": "All patients (n=23)", "result": "1 (4) n (%)"}, {"measurement": "TEAE Dry skin, All G", "setting": "All patients (n=23)", "result": "1 (4) n (%)"}, {"measurement": "TEAE Dry skin, G≥3", "setting": "All patients (n=23)", "result": "0 (0) n (%)"}, {"measurement": "TEAE Fatigue, All G", "setting": "All patients (n=23)", "result": "7 (30) n (%)"}, {"measurement": "TEAE Fatigue, G≥3", "setting": "All patients (n=23)", "result": "0 (0) n (%)"}, {"measurement": "TEAE Headache, All G", "setting": "All patients (n=23)", "result": "3 (13) n (%)"}, {"measurement": "TEAE Headache, G≥3", "setting": "All patients (n=23)", "result": "0 (0) n (%)"}, {"measurement": "TEAE Hypophosphataemia, All G", "setting": "All patients (n=23)", "result": "1 (4) n (%)"}, {"measurement": "TEAE Hypophosphataemia, G≥3", "setting": "All patients (n=23)", "result": "0 (0) n (%)"}, {"measurement": "TEAE Nausea, All G", "setting": "All patients (n=23)", "result": "5 (22) n (%)"}, {"measurement": "TEAE Nausea, G≥3", "setting": "All patients (n=23)", "result": "0 (0) n (%)"}, {"measurement": "TEAE Neutrophil decreased, All G", "setting": "All patients (n=23)", "result": "19 (83) n (%)"}, {"measurement": "TEAE Neutrophil decreased, G≥3", "setting": "All patients (n=23)", "result": "11 (48) n (%)"}, {"measurement": "TEAE Oedema genital, All G", "setting": "All patients (n=23)", "result": "1 (4) n (%)"}, {"measurement": "TEAE Oedema genital, G≥3", "setting": "All patients (n=23)", "result": "0 (0) n (%)"}, {"measurement": "TEAE Platelet decreased, All G", "setting": "All patients (n=23)", "result": "2 (9) n (%)"}, {"measurement": "TEAE Platelet decreased, G≥3", "setting": "All patients (n=23)", "result": "0 (0) n (%)"}, {"measurement": "TEAE Pruritus, All G", "setting": "All patients (n=23)", "result": "1 (4) n (%)"}, {"measurement": "TEAE Pruritus, G≥3", "setting": "All patients (n=23)", "result": "0 (0) n (%)"}, {"measurement": "TEAE Skin infection, All G", "setting": "All patients (n=23)", "result": "1 (4) n (%)"}, {"measurement": "TEAE Skin infection, G≥3", "setting": "All patients (n=23)", "result": "0 (0) n (%)"}, {"measurement": "TEAE Vomiting, All G", "setting": "All patients (n=23)", "result": "1 (4) n (%)"}, {"measurement": "TEAE Vomiting, G≥3", "setting": "All patients (n=23)", "result": "0 (0) n (%)"}, {"measurement": "TEAE White blood cell decreased, All G", "setting": "All patients (n=23)", "result": "3 (13) n (%)"}, {"measurement": "TEAE White blood cell decreased, G≥3", "setting": "All patients (n=23)", "result": "0 (0) n (%)"}, {"measurement": "permanent treatment discontinuation due to treatment-emergent adverse events", "setting": "all dose levels", "result": "no permanent treatment discontinuation"}, {"measurement": "treatment-emergent anaemia, all grades", "setting": "all dose levels, 23 patients", "result": 17, "unit": "%"}, {"measurement": "treatment-emergent anaemia, grade ≥ 3", "setting": "all dose levels, 23 patients", "result": 4, "unit": "%"}, {"measurement": "treatment-emergent constipation, all grades", "setting": "all dose levels, 23 patients", "result": 9, "unit": "%"}, {"measurement": "treatment-emergent fatigue, all grades", "setting": "all dose levels, 23 patients", "result": 30, "unit": "%"}, {"measurement": "treatment-emergent headache, all grades", "setting": "all dose levels, 23 patients", "result": 13, "unit": "%"}, {"measurement": "treatment-emergent leukopaenia, all grades", "setting": "all dose levels, 23 patients", "result": 13, "unit": "%"}, {"measurement": "treatment-emergent nausea, all grades", "setting": "all dose levels, 23 patients", "result": 22, "unit": "%"}, {"measurement": "treatment-emergent neutropaenia, all grades", "setting": "all dose levels, 23 patients", "result": 83, "unit": "%"}, {"measurement": "treatment-emergent neutropaenia, grade ≥ 3", "setting": "all dose levels, 23 patients", "result": 48, "unit": "%"}, {"measurement": "treatment-emergent thrombocytopaenia, all grades", "setting": "all dose levels, 23 patients", "result": 9, "unit": "%"}]}]}
